The source of these data is patent publication US20240158392A1 (Janssen Biotech, Inc., priority 2021, published 2024).

Some results are limits rather than exact numbers.

In one experiment the target is SIK2 (Homo sapiens, UniProt Q9H0K1). Description: SIK2 Enzymatic Assay High Version 2 (High ATP). The format is biochemical.
Chain of SIK2 (Q9H0K1 whole entry, species assumed): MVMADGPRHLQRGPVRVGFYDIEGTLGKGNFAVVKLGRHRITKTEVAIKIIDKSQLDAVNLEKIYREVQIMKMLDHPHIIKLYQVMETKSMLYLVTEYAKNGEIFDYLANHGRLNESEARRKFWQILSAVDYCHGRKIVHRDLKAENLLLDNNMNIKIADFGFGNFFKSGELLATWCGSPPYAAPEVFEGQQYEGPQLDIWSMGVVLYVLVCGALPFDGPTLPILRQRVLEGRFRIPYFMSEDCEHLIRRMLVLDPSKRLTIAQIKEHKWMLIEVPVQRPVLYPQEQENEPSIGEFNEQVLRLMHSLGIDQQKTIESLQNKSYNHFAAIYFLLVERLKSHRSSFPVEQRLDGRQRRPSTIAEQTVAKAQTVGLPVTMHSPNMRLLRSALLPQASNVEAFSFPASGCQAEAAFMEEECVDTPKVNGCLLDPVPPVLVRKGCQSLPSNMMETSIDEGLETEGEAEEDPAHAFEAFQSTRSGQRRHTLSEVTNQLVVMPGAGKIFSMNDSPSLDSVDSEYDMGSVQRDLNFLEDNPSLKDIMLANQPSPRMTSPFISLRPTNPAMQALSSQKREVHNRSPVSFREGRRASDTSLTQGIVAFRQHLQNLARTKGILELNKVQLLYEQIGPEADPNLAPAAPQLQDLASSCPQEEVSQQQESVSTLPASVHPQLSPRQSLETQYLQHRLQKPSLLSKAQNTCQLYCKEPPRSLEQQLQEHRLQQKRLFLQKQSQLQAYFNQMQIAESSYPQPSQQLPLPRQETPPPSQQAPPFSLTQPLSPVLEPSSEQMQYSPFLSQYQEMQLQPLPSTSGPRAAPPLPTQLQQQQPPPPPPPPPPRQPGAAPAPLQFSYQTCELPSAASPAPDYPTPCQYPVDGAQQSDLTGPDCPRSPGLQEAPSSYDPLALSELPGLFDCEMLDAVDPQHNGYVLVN
Settings: not given
The essentials:
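At room temperature, enzyme (6 nM, 2× final) was preincubated with compound for 30 min, then 6 mM ATP and 400 μM HDAC5tide (both 2× final) were added for 2 h. ADP formed was measured by ADP-Glo Max (2 h reagent, 1 h detection) using luminescence.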
Regarding `Cc1cc(Nc2cc3cc(-c4cc(C)ncc4O[C@H]4C[C@H]5COC[C@@H](C4)N5C)ccn3n2)ncn1` [Example 421, 5-[2-methyl-5-[[(1R,5S,7s)-9-methyl-3-oxa-9-azabicyclo[3.3.1]nonan-7-yl]oxy]-4-pyridyl]-N-(6-methylpyrimidin-4-yl)pyrazolo[1,5-a]pyridin-2-amine], the IC50 is 0.0122 µM.

Regarding `CCN1[C@@H]2COC[C@H]1C[C@@H](Oc1cnc(C)cc1-c1ccn3nc(NC(=O)C4CC4)cc3c1)C2` [Example 161, 7-endo-N-(5-(5-(((1R,5S,7s)-9-ethyl-3-oxa-9-azabicyclo[3.3.1]nonan-7-yl)oxy)-2-methylpyridin-4-yl)pyrazolo[1,5-a]pyridin-2-yl)cyclopropanecarboxamide], the IC50 was less than 0.000847 µM.

Take `Cc1cc(-c2ccn3nc(NC(=O)C4CC4)cc3c2)c(OC[C@H]2NCC2(C)C)cn1` [Example 471, N-[5-[5-[[(2S)-3,3-dimethylazetidin-2-yl]methoxy]-2-methyl-4-pyridyl]pyrazolo[1,5-a]pyridin-2-yl]cyclopropanecarboxamide]: half-maximal inhibition (IC50) required 0.0277 µM.

For `Cc1cc(Nc2cc3cc(-c4cc(Cl)ncc4O[C@@H]4[C@@H]5CO[C@H]4CN5)ccn3n2)nc(C)n1` [Example 495, 5-[2-chloro-5-[[(1S,4S,7R)-2-oxa-5-azabicyclo[2.2.1]heptan-7-yl]oxy]-4-pyridyl]-N-(2,6-dimethylpyrimidin-4-yl)pyrazolo[1,5-a]pyridin-2-amine], the IC50 was 0.0134 µM.

`CNC(=O)c1ccnc(Nc2cc3cc(-c4cc(C)ncc4O[C@H]4C[C@H]5COC[C@@H](C4)N5C(C)=O)ccn3n2)c1` [Example 631, 2-((5-(5-(((1R,5S,7s)-9-acetyl-3-oxa-9-azabicyclo[3.3.1]nonan-7-yl)oxy)-2-methylpyridin-4-yl)pyrazolo[1,5-a]pyridin-2-yl)amino)-N-methylisonicotinamide] yielded a 50% inhibitory concentration (IC50) of 0.0771 µM.

`Cc1cc(-c2ccn3nc(Nc4cc(C)c(=O)n(C)n4)cc3c2)c(OC2C[C@H]3COC[C@@H](C2)N3)cn1` (stereo partly drawn) [Example 337, 2,4-dimethyl-6-[[5-[2-methyl-5-[[(1S,5R)-3-oxa-9-azabicyclo[3.3.1]nonan-7-yl]oxy]-4-pyridyl]pyrazolo[1,5-a]pyridin-2-yl]amino]pyridazin-3-one] showed a 50% inhibitory concentration (IC50) of 0.00148 µM.

For `Cc1cc(-c2ccn3nc(Nc4cn(C)nc4C(O)C(F)(F)F)cc3c2)c(O[C@H]2C[C@H]3COC[C@@H](C2)N3C)cn1` (stereo partly drawn) [Example 422, 2,2,2-trifluoro-1-[1-methyl-4-[[5-[2-methyl-5-[[(1S,5R,7s)-9-methyl-3-oxa-9-azabicyclo[3.3.1]nonan-7-yl]oxy]-4-pyridyl]pyrazolo[1,5-a]pyridin-2-yl]amino]pyrazol-3-yl]ethanol], the IC50 is less than 0.000847 µM.

For `CCCNC(=O)c1ccc(Nc2cc3cc(-c4cc(C)ncc4O[C@H]4C[C@H]5COC[C@@H](C4)N5)ccn3n2)nc1` [Example 377, 6-[[5-[2-methyl-5-[[(1R,5S,7s)-3-oxa-9-azabicyclo[3.3.1]nonan-7-yl]oxy]-4-pyridyl]pyrazolo[1,5-a]pyridin-2-yl]amino]-N-propyl-pyridine-3-carboxamide], the concentration for half-maximal inhibition (IC50) is less than 0.000847 µM.

The experiment is the same for the next values; noted with them: enzyme 6 nM, 6 mM ATP and 400 μM HDAC5tide (each 2× final concentration); 30 minutes pre-incubation, 2 hours; ADP-Glo Max luminescence; read-out: SIK2 high ATP IC50 (μM) (Test Example 2).
Take `Cc1cc(-c2ccn3nc(Nc4cc(C)nc(C)n4)cc3c2)c(OC[C@@H]2CC3(CCCC3)CO2)cn1` (single isomer, unassigned) [Example 219, (*S)—N-(2,6-dimethylpyrimidin-4-yl)-5-[2-methyl-5-(8-oxaspiro[4.4]nonan-7-ylmethoxy)-4-pyridyl]pyrazolo[1,5-a]pyridin-2-amine]: the IC50 was 0.0497 µM.

For the compound `CO[C@H]1CNC[C@@H]1COc1cnc(C)cc1-c1ccn2nc(NC(=O)C3CC3)cc2c1` (relative stereo) [Example 458, Trans-*R, *R—N-[5-[5-[(4-methoxypyrrolidin-3-yl)methoxy]-2-methyl-4-pyridyl]pyrazolo[1,5-a]pyridin-2-yl]cyclopropanecarboxamide], the IC50 worked out at 0.00555 µM.

For `CC#Cc1cc(-c2ccn3nc(Nc4cc(C)nc(C)n4)cc3c2)c(OC[C@]23CN[C@H](CO2)C3)cn1` [Example 302, N-(2,6-dimethylpyrimidin-4-yl)-5-[5-[[(1S,4S)-5-oxa-2-azabicyclo[2.2.1]heptan-4-yl]methoxy]-2-prop-1-ynyl-4-pyridyl]pyrazolo[1,5-a]pyridin-2-amine], the IC50 was determined as 0.000975 µM.

With `Cc1cc(-c2ccn3nc(Nc4cnccn4)cc3c2)c(OC[C@H]2CN(C)CCO2)cn1` [Example 611, 5-[2-methyl-5-[[(2R)-4-methylmorpholin-2-yl]methoxy]-4-pyridyl]-N-pyrazin-2-yl-pyrazolo[1,5-a]pyridin-2-amine], the IC50 is 0.116 µM.

As to `Cc1cc(Nc2cc3cc(-c4cc(OC(F)F)ncc4OCC(C)(C)C#N)ccn3n2)nc(C(C)(C)C)n1` [Example 703, 3-[[4-[2-[(2-tert-butyl-6-methyl-pyrimidin-4-yl)amino]pyrazolo[1,5-a]pyridin-5-yl]-6-(difluoromethoxy)-3-pyridyl]oxy]-2,2-dimethyl-propanenitrile], the half-inhibitory concentration (IC50) was 0.0699 µM.

In the case of `Cc1cc(Nc2cc3cc(-c4cc(C(F)(F)F)ncc4OC[C@@]45CN[C@@H](CO4)C5)ccn3n2)nc(C)n1` [Example 252, N-(2,6-dimethylpyrimidin-4-yl)-5-[5-[[(1R,4R)-5-oxa-2-azabicyclo[2.2.1]heptan-4-yl]methoxy]-2-(trifluoromethyl)-4-pyridyl]pyrazolo[1,5-a]pyridin-2-amine], the IC50 was determined as 0.0284 µM.

For `Cc1cc(-c2ccn3nc(Nc4cc(C)nc(C)n4)cc3c2)c(OC[C@H](C)C(C)(C)O)cn1` [Example 554, (3S)-4-[[4-[2-[(2,6-dimethylpyrimidin-4-yl)amino]pyrazolo[1,5-a]pyridin-5-yl]-6-methyl-3-pyridyl]oxy]-2,3-dimethyl-butan-2-ol], the 50% inhibitory concentration (IC50) is 0.0275 µM.

On to `Cc1cc(-c2ccn3nc(Nc4cc(C)nc(C)n4)cc3c2)c(OC[C@H]2C[C@H](C#N)C2)cn1` [Example 686, 3-[[4-[2-[(2,6-dimethylpyrimidin-4-yl)amino]pyrazolo[1,5-a]pyridin-5-yl]-6-methyl-3-pyridyl]oxymethyl]cyclobutanecarbonitrile], for which the IC50 amounted to 0.0179 µM.

Turning to “N-[5-[2-cyano-5-[[(1R,5S,7s)-9-methyl-3-oxa-9-azabicyclo[3.3.1]nonan-7-yl]oxy]-4-pyridyl]pyrazolo[1,5-a]pyridin-2-yl]cyclopropanecarboxamide [Example 656]”, the IC50 came out at 0.132 µM.

`Cc1cc(-c2ccn3nc(Nc4cc(C)nc(C)n4)cc3c2)c(O[C@@H]2CCS(=O)(=O)C2)cn1` [Example 344, N-(2,6-dimethylpyrimidin-4-yl)-5-[5-[(3R)-1,1-dioxothiolan-3-yl]oxy-2-methyl-4-pyridyl]pyrazolo[1,5-a]pyridin-2-amine]: the IC50 is 0.00362 µM.

Consider `Cc1ccc(Nc2cc3cc(-c4cc(OC(F)F)ncc4OCC(C)(C)C#N)ccn3n2)nn1` [Example 711, 3-[[6-(difluoromethoxy)-4-[2-[(6-methylpyridazin-3-yl)amino]pyrazolo[1,5-a]pyridin-5-yl]-3-pyridyl]oxy]-2,2-dimethyl-propanenitrile], for which the IC50 is 0.01 µM.

Regarding `Cc1cc(-c2ccn3nc(Nc4ccn(C(C)C)n4)cc3c2)c(OC[C@@H]2CNCCO2)cn1` [Example 135, N-(1-isopropylpyrazol-3-yl)-5-[2-methyl-5-[[(2S)-morpholin-2-yl]methoxy]-4-pyridyl]pyrazolo[1,5-a]pyridin-2-amine], the IC50 turned out to be 0.00986 µM.

The term IC50 denotes the concentration that gives 50% inhibition.
